We go through one compound from paper PMC6927504, “Screening of House Dust from Chinese Homes for Chemicals with Liver X Receptors Binding Activities and Characterization of Atherosclerotic Activity Using an in Vitro Macrophage Cell Line and ApoE^−/− Mice” (Environmental Health Perspectives, 2019).

Series [1] is described as follows: Plasma lipids in ApoE−/− mice. Format: in vivo, mouse. As to conditions: 13 weeks, mean±SE. An excerpt:
All experiments related to animals were approved by the institutional animal care and use committee of Peking University and followed the guidelines for animal experiments of the university as well as for experimental animals in China. The biological effect size of the animal experiments was based on the previous paper ([Negro Silva et al. 2017]). C57BL/6 (12 weeks old) and ApoE^−/− mice (12 weeks old) were obtained from the Beijing Vital River Laboratory Animal Technology Company. Mice used in the experiments were acclimated to the housing unit 2 weeks before they were used for experiments, and they were randomly assigned to control or TPHP treatment groups. Five animals were housed to a cage, and mice were acclimatized to the controlled environment (temperature: 22±2°C; relative humidity: 40–60%; artificial lighting: 12 h:12 h light/dark). Mice received diet and drinking water ad libitum. Body weight (BW) was measured every week during the dosing period. Forty-five C57BL/6 mice and 27 ApoE^−/− mice were used in this study. Animal protocol 1: Male C57BL/6 mice (five mice per group) were fed a basic diet (Laboratory Animal Center of the Academy of Military Medical Sciences, China). On Day 0, mice were stimulated with paraffin oil by intraperitoneal injection. From Day 1 to Day 7, mice were exposed to corn oil (control) or TPHP (dissolved in corn oil) at 40 or 200mg/kg BW by daily oral gavage. The volume of the corn oil or TPHP in corn oil administered was 5mL/kg BW. On Day 8, after the mice were anesthetized by sodium pentobarbital via intramuscular injection, peritoneal macrophages were harvested from peritoneal lavage with 4mL pre-warmed DMEM-F12 (containing 10% FBS) using a 25-gauge needle; 5–10 min later, 3–3.5mL peritoneal fluid was collected, and the cells were isolated by centrifuge at 1,000 rpm for 5 min. The isolated cells were cultured in DMEM-F12 containing 10% FBS. After 4 h, the medium was changed, and the cells were cultured overnight. The cells were then used for the qRT-PCR, cellular cholesterol efflux assay, and foam cell formation experiment. The exposure period used in the present study was based on previous studies, in which peritoneal macrophages were harvested from mice treated with chemicals for 4–14 d ([Li et al. 2009]; [Saeed et al. 2012]). Considering that this study assessed the effects of short-term exposure to TPHP, whereas humans are exposed to TPHP over a lifelong period, the present study used exposure doses that were higher than that of human exposure from house dust. Animal protocol 2: Because wild-type mice are highly resistant to atherosclerosis, a well-established atherosclerosis model, the ApoE^−/− mouse, was used in the study. The male ApoE^−/− mice (nine mice per group) were fed a high-fat diet (D12108C; Research Diets Inc.) and exposed to corn oil (control) or TPHP (dissolved in corn oil) at 10 or 40mg/kg BW for 13 weeks by oral gavage. Mice were sacrificed 24 h after the last day of exposure with an overdose of sodium pentobarbital via intraperitoneal injection. Because the formation of atherosclerosis lesions required a long time, the exposure period used in the present study was based on previous studies in which the effects of chemicals on formation of atherosclerosis lesions were observed after an exposure period of 12–15 weeks ([Li et al. 2009]; [Negro Silva et al. 2017]; [Shi et al. 2016]). The doses of TPHP used in the ApoE^−/− model mouse referred to previous studies in which mice were treated with TPHP at 50–300mg/kg BW to observe significant adverse effects, including decreased testosterone levels and hypertriglyceridemia ([Chen et al. 2015]; [Morris et al. 2014]).
Treated ApoE^−/− mice ( n=9 per group) were fasted overnight, and heart puncture was used to collect the blood soon after each animal was sacrificed. The blood samples were then centrifuged ( 1,000×g , 10 min, 4°C) to separate the plasma, and the plasma was stored at −80°C . […]

In series [2] the test system is peroxisome proliferator-activated receptor-γ (PPARγ). The arrangement: method as in Hu et al. 2017; Pillai et al. 2014. As to conditions: ref Hu et al. 2017; Pillai et al. 2014; cited from earlier work.
The mark [3] stands for this setting: 40mg/kg, n=9, p<0.05 vs control.

In the case of `O=P(Oc1ccccc1)(Oc1ccccc1)Oc1ccccc1` [TPHP, triphenyl phosphate], in series [1] (10mg/kg, n=9), the “Plasma HDL-C” value was 1.13 ± 0.05 mmol/L, the “Plasma LDL-C” value is 10.53 ± 0.32 mmol/L, the Plasma cholesterol is 26.15 ± 1.34 mmol/L and the Plasma triglycerides turned out to be 0.92 ± 0.06 mmol/L. Besides, in series [1] (40mg/kg, n=9), the “Plasma HDL-C” value came to 1.29 ± 0.05 mmol/L and the “Plasma LDL-C” value amounted to 10.27 ± 0.22 mmol/L. Also, in series [1] (setting [3]), the Plasma cholesterol was determined as 28.83 ± 1.90 mmol/L and the Plasma triglycerides amounted to 1.06 ± 0.12 mmol/L. The PPARγ activity entry in series [2] is listed as “agonist”.
